Holding throughout (format): ADME, organism-based
For data set [1], the system named is Blood. In words: Drug uptake in Sprague-Dawley rat blood at 0.29 to 1.3 nmol/body, iv after 40 mins by gamma counting based PET imaging method. Particulars: in vivo; call rule not given here.
The test system of data set [2] is Liver. The data set is described as follows: Drug uptake in Sprague-Dawley rat liver at 0.29 to 1.3 nmol/body, iv after 10 mins by gamma counting based PET imaging method. Particulars: in vivo.
For data set [3], the system named is Blood. In words: Drug uptake in Sprague-Dawley rat blood at 0.29 to 1.3 nmol/body, iv after 60 mins by gamma counting based PET imaging method. Particulars: in vivo, 1 h.
A short description of data set [4]: Drug uptake in Sprague-Dawley rat urine at 0.20 to 1.4 nmol/body, iv within 40 mins by gamma counting based PET imaging method. Particulars: in vivo.
In a further data set the test system is Kidney. The data set is described as follows: Drug uptake in Sprague-Dawley rat kidney at 0.20 to 1.4 nmol/body, iv after 2 mins by gamma counting based PET imaging method. Particulars: in vivo.
The test system of data set [5] is Liver. In words: Drug uptake in Sprague-Dawley rat liver at 0.20 to 1.4 nmol/body, iv after 2 mins by gamma counting based PET imaging method. Particulars: in vivo.
A short description of data set [6]: Drug uptake in Sprague-Dawley rat urinary bladder at 0.20 to 1.4 nmol/body, iv after 60 mins by gamma counting based PET imaging method. The note with it: in vivo, 1 h.
The test system of data set [7] is Liver. In words: Drug uptake in Sprague-Dawley rat liver at 0.20 to 1.4 nmol/body, iv within 40 mins by gamma counting based PET imaging method. The note with it: in vivo.
The next data set has as its system Intestine. In words: Drug uptake in Sprague-Dawley rat intestine at 0.20 to 1.4 nmol/body, iv after 60 mins by gamma counting based PET imaging method. The note with it: in vivo, 1 h.
Data set [8] in a line: Drug uptake in Sprague-Dawley rat bile at 0.20 to 1.4 nmol/body, iv within 40 mins by gamma counting based PET imaging method. Particulars: in vivo.
In data set [9] the test system is Blood. In words: Drug uptake in Sprague-Dawley rat blood at 0.20 to 1.4 nmol/body, iv within 40 mins by gamma counting based PET imaging method. The note with it: in vivo.

Where only a bound is given, the exact number is not on record here.

Regarding `[11CH3]c1ccc(-c2cc(C(F)(F)F)nn2-c2ccc(S(N)(=O)=O)cc2)cc1`, the Drug uptake entry is on record as “Active” with Blood [1], “Active” in the data set on Liver [2] and greater than 1 %ID/ml in the data set on Blood [3].

Take `NS(=O)(=O)c1ccc(-n2nc(C(F)(F)F)cc2-c2ccc([11C](=O)O)cc2)cc1`: the Drug uptake result was “Active” in data set [4]; 14 %ID with Kidney; 35 %ID in the data set on Liver [5]; 22 %ID in [6]; “Active” with Liver [7]; 58 %ID with Intestine. For the same molecule, the Drug uptake entry (in data set [8]; with Blood [9]) was “Active” in each case.

(Values after ChEMBL document CHEMBL1799929, “Efficient sequential synthesis of PET Probes of the COX-2 inhibitor [11C]celecoxib and its major metabolite [11C]SC-62807 and in vivo PET evaluation” (Bioorg Med Chem, 2011).)
